Reference: paper PMC10870720, “Lignin bioconversion based on genome mining for ligninolytic genes in Erwinia billingiae QL-Z3” (Biotechnology for Biofuels and Bioproducts, 2024)

Tested on: ELAC_205
Conditions: laccase; sodium acetate buffer; optimum pH 1.0, 50 °C (kinetic assay conditions not stated separately)

## CCn1c(=NN=c2sc3cc(S(=O)(=O)O)ccc3n2CC)sc2cc(S(=O)(=O)O)ccc21 [ABTS, 2, 2’-azino-bis (3-ethylbenzothiazoline-6-sulfonic acid)]
  Km: 360 ± 70 µM
